The source of these data is patent publication US6900315B2, “2-amino-9H-purin-9-yl compounds and methods for inhibiting/treating HIV infections and AIDS related symptoms” (Yale University, priority 2001, dated 2005).

Read-outs that look alike come from different tables or passages of the source.

The test system of one data set is MT-2. The data set can be described thus: Toxicity, dye based cell growth assay in absence of HIV, MT-2. To be noted: read-out: IC50 (inhibited 50% of the cell growth), MT-2, HTLV infected T cell line, 5 days. The method, then:
(§1) To determine the toxicity of the compounds to various cell lines (Table 1, below), a similar dye based assay is performed in the absence of HIV. The toxicity of the compounds alone therefore was determined.

The subject of another data set is CEM. Kind of data set: Toxicity, dye based cell growth assay, CEM. To be noted: read-out: IC50 (inhibited 50% of the cell growth), CEM, T cell line, 5 days. The procedure:
as §1

In data set [1] the test system is mitochondrial DNA in CEM cells. The data set can be described thus: Mitochondrial toxicity: ratio of mitochondrial DNA to Alu repeat in CEM cells. Type of data set: cell-based. The following applies: human, 8 days. An excerpt: After 8 days of growth the cells were lysed and probed for the amount of mitochondrial DNA and normalized for differences in the amount of total DNA by probing for the Alu repeat. By comparing the amount of mitochondrial DNA to the amount of Alu repeat the % decrease in mitochondrial DNA in the presence of various concentrations of drug can be obtained. All experiments were done in triplicate. Techniques which are presented here have been previously described in Chen and Cheng, J. Biol. Chem., vol. 264, 11934-7 (1989).

A further data set concerns HeLa. The data set can be described thus: Toxicity, dye based cell growth assay, HeLa. To be noted: read-out: IC50 (inhibited 50% of the cell growth), cervical cancer cell line, 5 days. The method, then:
as §1

The next data set deals with HEP-G2. The data set can be described thus: Toxicity, dye based cell growth assay, HEP-G2. To be noted: read-out: IC50 (inhibited 50% of the cell growth), HEP-G2, hepatoma cell line, 5 days. The procedure:
as §1

A further data set relates to KB. Kind of data set: Toxicity, dye based cell growth assay, KB. The following applies: read-out: IC50 (inhibited 50% of the cell growth), oral carcinoma, 5 days. The method, then: as §1
For another data set, the system named is HIV IIIB. Kind of data set: Anti-HIV activity in MT-2 cells infected with HIV IIIB, MTT dye cell viability. Format: cell-based. To be noted: read-out: EC50 (concentration necessary to save 50% of the cells). The procedure: To assess the ability of the compounds according to the present invention to inhibit viral infection relative to other compounds experiments were performed in the MT-2 cell line, as previously described by Larder, et al., Antimicrobial Agents & Chemotherapy, vol. 34, 436 (1990). […] Cells were infected at an initial multiplicity of infection (MOI) of 0.1 and grown for 5 days. Cell viability was assessed by the use of dye metabolized by viable cells.
For orientation: Tetrazolium dyes change colour on reduction, which living cells bring about.

Data set [2] has as its target T1, wild type HIV-1 reverse transcriptase (Human immunodeficiency virus type 1 group M subtype B, UniProt P04585).
T1 construct: a mixture of 100 nM HIV-1 reverse transcriptase and 300 nM primer/template
On the set-up: kpol/Kd: unit not given here. To be noted: from Ray and Anderson or Furman et al., cited from earlier work.

Data set [3] deals with T1, wild type HIV-1 reverse transcriptase. The data set can be described thus: Kinetics of nucleotide incorporation by wild type HIV-1 reverse transcriptase. Format: biochemical. The following applies: RT WT. The method, then: Continued research on the guanosine prodrug approach for making D4G a viable anti-HIV agent has yielded a number of new findings. In the present example, enzyme kinetics for the incorporation of the active metabolites of guanosine prodrugs with wild type HIV-1 reverse transcriptase was determined. In this experiment, a mixture of 100 nM HIV-1 reverse transcriptase and 300 nM primer/template in which the correct base incorporation is a guanine nucleotide was rapidly mixed with nucleotide in the presence of 50 mM Tris, 50 mM NaCl and 10 mM MgCl2 for a set amount of time and then the reaction was stopped by the addition 300 mM of EDTA.

Data set [4] relates to HIV. The following applies: pairs: D4T and AZT, 3TC and ddC, FD4C and 3TC, abacavir and cyclo D4G; Bridges et al., Dutschman et al.; cited from earlier work.
The subject of data set [5] is HIV. The data set can be described thus: Anti-HIV drug combination (synergy, isobologram of FEC50) in cell culture. Type of data set: cell-based. To be noted: FIG. 3 and FIG. 4. The procedure:
Points on this line represent the compounds working independently.
In an attempt to understand how D4G prodrugs of the present invention would interact with other clinically approved compounds, experiments were performed with drug combinations. […] Points on the line represent two compounds working independently. […] See, Bridges, et al., Biochem. Pharmacol., 51, 731 (1996) and Dutschman, et al., Antimicro. Agents Chemother. 42, 1799 (1998).

For data set [6], the target named is T2, mitochondrial polymerase gamma (Homo sapiens, UniProt P54098).
T2 sequence (P54098 1-1239): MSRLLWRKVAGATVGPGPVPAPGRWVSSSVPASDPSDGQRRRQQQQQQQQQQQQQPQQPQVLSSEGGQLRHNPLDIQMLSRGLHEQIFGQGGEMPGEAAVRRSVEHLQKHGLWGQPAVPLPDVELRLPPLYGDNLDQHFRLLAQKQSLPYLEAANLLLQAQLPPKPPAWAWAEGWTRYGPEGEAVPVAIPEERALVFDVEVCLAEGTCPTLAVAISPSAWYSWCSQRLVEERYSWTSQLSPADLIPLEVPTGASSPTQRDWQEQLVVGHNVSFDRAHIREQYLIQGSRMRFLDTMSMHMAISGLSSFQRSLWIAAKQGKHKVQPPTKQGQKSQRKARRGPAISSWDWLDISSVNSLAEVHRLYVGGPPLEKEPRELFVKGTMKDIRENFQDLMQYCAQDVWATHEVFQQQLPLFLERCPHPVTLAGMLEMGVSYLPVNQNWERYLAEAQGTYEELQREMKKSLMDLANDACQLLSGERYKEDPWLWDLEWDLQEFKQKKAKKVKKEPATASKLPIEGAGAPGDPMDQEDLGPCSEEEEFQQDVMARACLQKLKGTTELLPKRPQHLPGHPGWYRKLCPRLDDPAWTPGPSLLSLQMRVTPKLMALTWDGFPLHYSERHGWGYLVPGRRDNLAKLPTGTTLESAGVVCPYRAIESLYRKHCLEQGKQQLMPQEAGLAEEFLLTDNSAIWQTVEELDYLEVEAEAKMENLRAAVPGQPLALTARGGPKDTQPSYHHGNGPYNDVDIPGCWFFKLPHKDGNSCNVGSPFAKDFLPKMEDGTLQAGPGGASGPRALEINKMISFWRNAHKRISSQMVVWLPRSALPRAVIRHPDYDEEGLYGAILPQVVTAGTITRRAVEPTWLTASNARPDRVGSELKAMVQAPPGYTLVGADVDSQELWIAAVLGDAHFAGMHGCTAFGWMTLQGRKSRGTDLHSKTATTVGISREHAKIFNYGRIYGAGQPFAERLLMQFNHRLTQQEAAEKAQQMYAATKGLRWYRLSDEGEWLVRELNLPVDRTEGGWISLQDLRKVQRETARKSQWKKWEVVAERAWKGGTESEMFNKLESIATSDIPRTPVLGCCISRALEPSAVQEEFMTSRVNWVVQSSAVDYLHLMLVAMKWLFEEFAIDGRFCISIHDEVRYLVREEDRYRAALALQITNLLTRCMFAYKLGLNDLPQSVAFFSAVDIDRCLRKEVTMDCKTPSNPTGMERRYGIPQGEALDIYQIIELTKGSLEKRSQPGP
The data set can be described thus: Nucleotide incorporation by mitochondrial polymerase gamma into an elongating DNA strand. Type of data set: biochemical. The following applies: mitochondrial polymerase gamma, incorporation.

Setting [7] is: Human immunodeficiency virus 1, MT2, 120 h, MT-2 cells, HIV IIIB, MOI 0.1, 5 days, MTT, NA = No Activity at concentrations up to 100 uM, EC50 not achievable due to toxicity.
[8] abbreviates: Table 4, primer/template DNA/DNA.
[9] abbreviates: Table 4, primer/template DNA/RNA.

As a reminder, the IC50 is the concentration that inhibits the measured activity by half. By Kd is commonly meant the equilibrium constant for the complex coming apart.

For `Nc1ccn([C@H]2CC[C@@H](CO)O2)c(=O)n1` [DdC, 2′,3′ dideoxycytodine], the IC50 in the data set with MT-2 (Homo sapiens, MT2, 120 h) was 2 ± 0.3 µM; in the data set on CEM (Homo sapiens, CCRF-CEM, 120 h) it was 3 ± 1 µM; with HeLa (Homo sapiens, 120 h), over 100 µM; with HEP-G2 (Homo sapiens, HepG2, 120 h), 25 ± 2 µM; in the data set with KB (Homo sapiens, 120 h), 100 ± 11 µM. Also, the results for the “% Control (mtDNA/Alu)” value in data set [1] (0.01 μM), in [1] (0.1 μM) and in [1] (1 μM) were 87%, 65% and 3%, respectively. For the same molecule, the entries for the “Ration of mtDNA/Alu” value in [1] (0.01 μM), in data set [1] (0.1 μM) and in [1] (1 μM) were 0.93 ± 0.06, 0.70 ± 0.04 and 0.03 ± 0.01, respectively. Also, the EC50 with HIV IIIB (setting [7]) amounted to 0.3 ± 0.05 µM.
With `Nc1nc2c(ncn2C2C=CC(COP(=O)(O)OP(=O)(O)OP(=O)(O)O)C2)c(=O)[nH]1` (single isomer, unassigned; (-)) [CBVTP, (−) carbovir-TP], in data set [2] (Table 3, substrate DNA/DNA), the “Selectivity = (kpol/Kd)dGTP/(kpol/Kd)analog” value is 30, the kpol is 1.0 ± 0.06 s⁻¹ and the kpol/Kd was 0.05 ± 0.01. Moreover, in data set [2] (Table 3, substrate DNA/RNA), the “Selectivity = (kpol/Kd)dGTP/(kpol/Kd)analog” value is 10, the kpol was 1.5 ± 0.05 s⁻¹ and the kpol/Kd is listed as 0.42 ± 0.06. Further, in data set [3] (setting [8]), the Efficiency is 0.05 ± 0.01 s^−1μM^−1, the Kd came to 21 ± 3 µM, the “Selectivity = efficiency dGTP/efficiency analog” value was determined as 30 and the kpol amounted to 1.0 ± 0.06 s⁻¹. Further, in data set [3] (setting [9]), the Efficiency turned out to be 0.42 ± 0.06 s^−1μM^−1, the Kd was found to be 3.7 ± 0.5 µM, the “Selectivity = efficiency dGTP/efficiency analog” value came to 10 and the kpol came out at 1.5 ± 0.05 s⁻¹.
With `Nc1nc(NC2CC2)c2ncn([C@H]3C=C[C@@H](CO)C3)c2n1` [Abacavir], the IC50 in the data set on MT-2 (Homo sapiens, MT2, 120 h) worked out at 60 ± 13 µM; in the data set on CEM (Homo sapiens, CCRF-CEM, 120 h) it was 200 ± 50 µM; in the data set on HeLa (Homo sapiens, 120 h), 500 ± 33 µM; with HEP-G2 (Homo sapiens, HepG2, 120 h) it was 180 ± 12 µM; in the data set with KB (Homo sapiens, 120 h), 200 ± 21 µM. Besides, the “anti-HIV interaction of two analogs of the same base” value in the data set with HIV [4] is given as “not synergistic”. The “% Control (mtDNA/Alu)” value in data set [1] (1 μM) is given as 110%; in [1] (10 μM), 119%; in data set [1] (200 μM), 127%. Besides, the “Ration of mtDNA/Alu” value in data set [1] (1 μM) turned out to be 1.18 ± 0.03; in [1] (10 μM), 1.27 ± 0.06; in data set [1] (200 μM), 1.36 ± 0.06. In the data set with HIV [5], the “anti-HIV interaction in combination with 3TC” value is given as “merely additive”. Further, the EC50 in the data set on HIV IIIB (Human immunodeficiency virus 1, IIIB, MT2, 120 h) was found to be 2 ± 0.4 µM.
Turning to `Nc1nc(N)c2ncn([C@H]3CO[C@@H](CO)O3)c2n1` [DAPD], the IC50 with MT-2 is over 100 µM; in the data set with CEM, over 500 µM; in the data set on HeLa it was 500 ± 33 µM; in the data set on HEP-G2, 500 ± 33 µM; in the data set with KB, over 500 µM. The EC50 in the data set on HIV IIIB (MT-2 cells, HIV IIIB, MOI 0.1, 5 days, MTT, NA = No Activity at concentrations up to 100 uM, EC50 not achievable due to toxicity) was determined as 15 ± 4 µM.
As to `Nc1nc(=O)n([C@@H]2C=C[C@H](CO)O2)cc1F` [FD4C], the “anti-HIV interaction of two analogs of the same base” value with HIV [4] is on record as “not synergistic”.
With `OC[C@@H]1CC[C@H](n2cnc3c(O)ncnc32)O1` [DdI, 2′,3′ dideoxyinosine], the IC50 in the data set on MT-2 (Homo sapiens, MT2, 120 h) is over 100 µM; in the data set with CEM (Homo sapiens, CCRF-CEM, 120 h) it was over 500 µM; in the data set with HeLa (Homo sapiens, 120 h) it was 500 ± 33 µM; with HEP-G2 (Homo sapiens, HepG2, 120 h) it was over 500 µM; in the data set on KB (Homo sapiens, 120 h), over 500 µM. Further, in the data set with HIV IIIB (setting [7]), the EC50 came out at 20 ± 6 µM.
Consider `Nc1nc2c(ncn2[C@H]2CO[C@@H](COP(=O)(O)OP(=O)(O)OP(=O)(O)O)O2)c(=O)[nH]1` [DXGTP], for which, in data set [2] (Table 3, substrate DNA/DNA), the Kd was 2.5 ± 0.2 µM, the “Selectivity = (kpol/Kd)dGTP/(kpol/Kd)analog” value is 3, the kpol was 1.46 ± 0.03 s⁻¹ and the kpol/Kd was 0.58 ± 0.05. Also, in data set [2] (Table 3, substrate DNA/RNA), the Kd is 8.8 ± 1.1 µM, the “Selectivity = (kpol/Kd)dGTP/(kpol/Kd)analog” value is 20, the kpol is 1.5 ± 0.1 s⁻¹ and the kpol/Kd is 0.17 ± 0.02.
Turning to `Cc1cn([C@H]2C[C@H](O)[C@@H](COP(=O)(O)OP(=O)(O)OP(=O)(O)O)O2)c(=O)[nH]c1=O` [dTTP], in [6], binding was characterised by a dissociation constant (Kd) of 0.6 ± 0.16 µM, the kpol turned out to be 25 ± 2 s⁻¹ and the “kpol/Kd” value was 3.9e+07 ± 1.3e+07 M⁻¹ s⁻¹.
